Measured values: patent publication US7820196B2, “Physiologically active agents containing vicinal dithioglycols and use thereof in various branches of economy” (priority 1999, dated 2010)

Assays:
broiler chickens = test: Example 6: effect of unithiol on accumulation of heavy metal compounds in tissues of poultry; type: in vivo
Method: An experiment was conducted, on the inventors' initiative, on the experimental base of the All-Russia research and technological institute for aviculture (VNITIP) during which a study was given to the following tasks: • determination of an effect produced by unithiol (DMPS) on the productivity and meat quality of broiler chickens; • effect produced by unithiol on the accumulation of heavy metal compounds (mercury, cadmium, lead) in various tissues of poultry.
The experiment was carried out in a vivarium on broiler chickens of one cross. Poultry was grown in cell batteries from one day to six-week age. The operating parameters and feeding level met the recommendation VNITIP 1999. The experiment was conducted according to the diagram on Table 1.
The poultry population: 1 and 2 groups, 35 heads each; 3,4,5 groups—6 heads each.
13. Contained heavy metal residual compounds (mercury, cadmium, lead) in mixed feed for the broilers.
14. Evaluation of the level of meat contamination and internal organs (liver and kidneys) of the broilers with heavy metal salts.

broilers = test: Example 5: broilers fed basic ration plus Unithiol; type: in vivo
Method: A full-ration mixed-fodder was checked for the absence of pathogens and used for feeding broilers. Thirty 15 days broilers were divided into one control and 4 experimental groups having 6 chickens each (3 male and 3 female chickens). Poultry were kept in a four-deck pen. The conditions of feeding such as the basic ration (BR) and the addition of Unithiol according to the protocol were as follows:
Experimental group 1: BR+1.3 mg of “Unithiol” per 1 kg of the body weight;
Experimental group 2: BR+1.7 mg of “Unithiol” per 1 kg of the body weight;
Experimental group 3: BR+2.1 mg of “Unithiol” per 1 kg of the body weight;
Experimental group 4: BR+2.5 mg of “Unithiol” per 1 kg of the body weight.
Feeding was performed in accordance with experimental protocol; broilers received water ad libitum; the experiment was carried out for 42 days.

[1] = Group 2: BR + 17 mg unithiol/kg feed days 15-42
[2] = Group 4: BR + heavy metals + 17 mg unithiol/kg feed, both days 15-42
[3] = Group 5: BR + heavy metals days 15-35, 34 mg unithiol/kg feed days 36-42
[4] = about 1.7 mg Unithiol per 1 kg of body weight in ration

## O=S(=O)([O-])CC(S)CS.[Na+] (stereo not shown) [Unithiol, Sodium 2,3-Dimercaptopropane sulfonate]
Broiler chickens; [1]
  Heavy metal content: cadmium, kidneys: 0.078 mg/kg
  Heavy metal content: cadmium, liver: 0.049 mg/kg
  Heavy metal content: lead, kidneys: 0.67 mg/kg
  Heavy metal content: lead, liver: 0.40 mg/kg
  Heavy metal content: mercury, kidneys: 0.055 mg/kg
  Heavy metal content: mercury, liver: 0.039 mg/kg
  Heavy metal content: zinc, kidneys: 95.3 mg/kg
  Heavy metal content: zinc, liver: 104.1 mg/kg
  Heavy metal content: zinc, muscular tissue: 50.2 mg/kg
Broiler chickens; [2]
  Heavy metal content: cadmium, kidneys: 3.76 mg/kg
  Heavy metal content: cadmium, liver: 2.98 mg/kg
  Heavy metal content: cadmium, muscular tissue: 0.37 mg/kg
  Heavy metal content: lead, kidneys: 8.50 mg/kg
  Heavy metal content: lead, liver: 4.80 mg/kg
  Heavy metal content: lead, muscular tissue: 0.83 mg/kg
  Heavy metal content: mercury, kidneys: 2.00 mg/kg
  Heavy metal content: mercury, liver: 2.18 mg/kg
  Heavy metal content: mercury, muscular tissue: 0.375 mg/kg
  Heavy metal content: zinc, kidneys: 103.1 mg/kg
  Heavy metal content: zinc, liver: 107.2 mg/kg
  Heavy metal content: zinc, muscular tissue: 50.4 mg/kg
Broiler chickens; [3]
  Heavy metal content: cadmium, kidneys: 2.97 mg/kg
  Heavy metal content: cadmium, liver: 2.30 mg/kg
  Heavy metal content: cadmium, muscular tissue: 0.24 mg/kg
  Heavy metal content: lead, kidneys: 7.00 mg/kg
  Heavy metal content: lead, liver: 3.40 mg/kg
  Heavy metal content: lead, muscular tissue: 0.54 mg/kg
  Heavy metal content: mercury, kidneys: 1.05 mg/kg
  Heavy metal content: mercury, liver: 1.12 mg/kg
  Heavy metal content: mercury, muscular tissue: 0.328 mg/kg
  Heavy metal content: zinc, kidneys: 98.2 mg/kg
  Heavy metal content: zinc, liver: 104.3 mg/kg
  Heavy metal content: zinc, muscular tissue: 50.3 mg/kg
Broiler chickens; use of unithiol
  heavy metal salt content in the depositing organs and meat: considerably reduce a heavy metal salt content
broilers; Unithiol in ration
  feathering condition: Feathering condition improvement
  fodder consumption: increased fodder consumption
broilers; [4]
  average weight gain: up to 35.8 g per day
  gain rate, % from that in the control group: 145.9%
broilers; about 1.7 mg per 1 kg of body weight in ration, beginning from the 15th day
  growth stimulating effect: growth stimulating effect
broilers; experimental groups, 1.3-2.5 mg Unithiol per kg body weight
  level of cadmium, zinc, lead and copper in meat and liver, lower than control group: about 1.5 times
